Assay results reported in patent US9675629B2, “PH-responsive nanoparticle using mussel adhesive protein for drug delivery and method for preparing the same” (POSTECH ACADEMY-INDUSTRY FOUNDATION, priority 2015, dated 2017).

Tested on: HeLa cells
Assay: Cellular uptake evaluation, cell imaging and flow cytometer analysis
Format: cell-based
Conditions: DOX 2 μg/mL
Protocol: For cellular uptake evaluation, cell imaging and flow cytometer analysis were performed. For cell imaging, free DOX and DOX-loaded mfp-1 nanoparticles (DOX concentration 2 μg/mL) were treated for 1 and 3 hours into each cell culture medium after initial cell seeding on 24-well culture plate. Before observation, cells were stained with 5 μg/mL of Hoechst 33258 (Sigma) solution for 30 minutes to clearly discriminate cell nucleus from cytosol. Cell nucleus and location of DOX were observed using fluorescence microscopy (Olympus). Cells treated by same condition with imaging procedures were collected for flow cytometry analysis after detachment by 0.25% trypsin-EDTA treatment. Fluorescence intensity of DOX in the collected cells resuspended in 1 mL PBS was examined by fluorescence scanning with 1×10^4 cells under PerCP-Cy5.5 filter (488 nm excitation and 630 nm emission). Calibration was performed using non-treated cells.

## COc1cccc2c1C(=O)c1c(O)c3c(c(O)c1C2=O)C[C@@](O)(C(=O)CO)C[C@@H]3O[C@H]1C[C@H](N)[C@H](O)[C@H](C)O1 [free DOX, doxorubicin]
1 and 3 hours
  fluorescence intensity of DOX in cells, flow cytometry: higher than DOX-loaded mfp-1 nanoparticles-treated cells
Treated for 1 hour
  location of DOX in cells, fluorescence microscopy: spread over the whole cell area
